{
  "source": "patent US20220313658A1",
  "about": "“YAP Inhibition for Wound Healing” (The Board of Trustees of the Leland Stanford Junior …, priority 2019, published 2022)",
  "format_in_all_cases": "in vivo, mouse",
  "key": {"dorsal excisional wounds [1]": {"tested_on": "dorsal excisional wounds", "experiment": "Example 2: excisional wound model, hair regrowth after single Verteporfin injection", "description": "Adult mice were used for cutaneous wound healing experiments in accordance with well-established protocols. Briefly, mice were anesthetized (2% isofluorane), their dorsal hair was removed with depilatory cream, and the dorsal skin was prepped with alcohol wipes. Next, two 6 mm full-thickness circular wounds were placed through the panniculus carnosus on the dorsum of each animal at the same level, roughly 6 mm below the ears and 4 mm lateral to the midline. The wounds were then stented open by 12 mm diameter silicone rings secured around the wound perimeter with glue and 8 simple interrupted Ethilon 6-0 sutures (Ethicon). For mice receiving mechanotransduction inhibitor, 30 μL of Verteporfin (1 mg/mL) was injected locally into the wound base; PBS was injected into wounds for vehicle controls. Post-operative analgesia was accomplished with buprenorphine 0.05 mg/kg every four hours for three doses, and then as indicated. Dressings were changed every other day under anesthesia. […]"}, "[2]": {"tested_on": "mechanically loaded dorsal incisional wounds", "experiment": "Mechanical loading of dorsal incisional wounds with Verteporfin treatment", "method": "20 mm-long linear wounds were produced on the dorsum of P60 En-1^Cre-ERT;Ai6 mice and then closed with sutures. On POD 4, a loading device (constructed from 22 mm expansion screws and Luhr plate supports) was secured over each wound with adhesive and simple interrupted sutures. For mice receiving mechanotransduction signaling inhibitor, 30 μL of Verteporfin (1 mg/mL) was injected along the suture line both at POD 0 and POD 4; PBS was injected into wounds for vehicle controls. Device tension was increased by distracting expansion 2 mm every 2 days for 10 days total. Mice with unexpanded devices served as sham surgery controls. On POD 14, wounds were harvested and processed for histology to characterize the effects of increased wound tension on activation of ENFs to scarring pEPFs. In FIG. 2, G-I, a minimum of 4 mice was used for each experimental group.\nTissues were fixed in 2% paraformaldehyde for 16 h at 4° C. Samples were prepared for embedding by soaking in 30% sucrose in PBS for 1 week at 4° C. Samples were then removed from the sucrose solution, and tissue blocks were prepared by embedding in Tissue Tek U.C.T. (Sakura Finetek) under dry ice to achieve rapid freezing. Frozen blocks were mounted on a Thermo Scientific CryoStar NX70 cryostat, and 10 μm-thick sections were transferred to SuperfrostfPlus adhesive slides (Fisher). For hematoxylin and eosin staining, standard protocols were used with no modifications. For immunofluorescent staining, slides were blocked for 1 hr with Power Block (Biogenex) prior to addition of the following primary antibodies: Abeam ab34710 (anti-collagen type I), Abeam ab28340 (anti-CD26), Invitrogen MA5-15915 (anti-Dlk1), Abeam ab51317 (anti-Scat), Abeam ab5694 (anti-α-SMA), Santa Cruz Biotechnology sc-101199 (anti-YAP), Abeam ab7800 (anti-CK14), and Abeam ab52625 (anti-CK19). Slides were then incubated for 1 h with Alexa Fluor 568 or Alexa Fluor 647-conjugated anti-rabbit, anti-rat, or anti-mouse antibodies (Invitrogen). Finally, slides were mounted in Fluoromount-G mounting solution with DAPI (Thermo Fisher). Brightfield images were acquired with a Leica DMI4000B microscope, while fluorescent images were acquired with a Leica DM6000 SP5 upright confocal microscope.\nThen, whether mechanical tension similarly promoted ENF-to-EPF transition in vivo was assessed. […]"}, "dorsal excisional wounds [3]": {"tested_on": "dorsal excisional wounds", "experiment": "Tensile strength testing (Instron) of healed wounds", "method": "Tensile strength tests for unwounded skin (N=7) and PBS (N=5) or Verteporfin-treated (N=4) wounds in P60 C57BL/6 mice were conducted at POD 30 using an Instron 5565 equipped with a 100 N load cell. Dorsal skin was harvested and cut into 4 mm-by-15 mm strips. Tissue strips were then secured using custom grips with the scar positioned equidistant to each grip edge and preloaded to a force of 0.02 N to remove slack before the length of the tissue was measured using digital calipers; the width and thickness of the strips were also re-measured to confirm accurate dimensions. Finally, the skin was subjected to an extension test to failure, defined by a sharp decrease in stress with increasing strain, at a rate of 1%/s. The wound breaking force, or yield force, was determined at the maximal force before the tissue entered plastic deformation and eventual failure. True strain was calculated as the change in length divided by the original gauge length, and true stress was calculated as the force divided by the original cross-sectional area. The Young's Modulus was calculated by taking a least-squares regression of the slope during the linear, elastic portion of the stress-strain curve (R^2>0.99). […] In order to characterize the physical properties of Verteporfin-treated wounds, tensile testing was performed on unwounded skin and PBS- or Verteporfin-treated wounds after 30 days of healing."}, "[4]": {"details": "single local injection immediately following wounding"}},
  "data": [
    {"substance": "verteporfin", "values": [
      {"measurement": "Regrowth of dermal appendages", "setting": "dorsal excisional wounds [1]; POD 90 (FIG. 13, C)", "value": "regrowth of hair follicles and other dermal appendages"},
      {"measurement": "Hair regrowth", "setting": "dorsal excisional wounds [1]; [4]", "value": "dramatic increase in hair regrowth"},
      {"measurement": "Regeneration of new hair follicles (gross, histology, immunohistochemistry)", "setting": "dorsal excisional wounds [1]; [4]", "value": "Regeneration of new hair follicles in Verteporfin-treated wounds was observed"},
      {"measurement": "Wound closure", "setting": "dorsal excisional wounds [1]; [4]", "value": "did not delay wound closure"},
      {"measurement": "Gross appearance of mechanically loaded wounds", "setting": "[2]; 30 μL of 1 mg/mL injected at POD 0 and POD 4, harvested POD 14", "value": "grossly resembled control (non-mechanically loaded) wounds"},
      {"measurement": "Number of pEPFs (GFP+ cells) in wounds", "setting": "[2]; compared to mechanically loaded, non-Verteporfin treated wounds, POD 14", "value": "significantly fewer pEPFs"},
      {"measurement": "YAP and a-SMA expression (immunofluorescent staining)", "setting": "[2]; compared to untreated mechanically loaded wounds, POD 14", "value": "decreased YAP and a-SMA expression"},
      {"measurement": "Number of YAP+ cells in wounds", "setting": "[2]; mechanically loaded wounds, POD 14", "value": "significantly fewer YAP+ cells"},
      {"measurement": "Force-displacement and stress-strain curves", "setting": "dorsal excisional wounds [3]; after 1 month of healing", "value": "more closely resembled unwounded skin than scar"},
      {"measurement": "Tensile strength (wound breaking force and Young's modulus)", "setting": "dorsal excisional wounds [3]; after 30 days of healing, vs unwounded skin", "value": "did not significantly differ from that of unwounded skin"}
    ]}
  ]
}
